Assay results reported in PMC11472310, “Distinctive Immune Signatures Driven by Structural Alterations in Desmuramylpeptide NOD2 Agonists” (Journal of Medicinal Chemistry, 2024).
Like-named read-outs stand apart in the source and are kept apart here.

How the values were obtained:
PBMCs = experiment: Direct cytotoxic effect of compounds on PBMCs (Sytox blue); assay type: cell-based; conditions: Table S2; for Percent of dead PBMCs, + LPS: 10 μM + LPS 1 μg/mL; for Percent of dead PBMCs: alone: compounds 10 μM, LPS 1 μg/mL, IL-2 200 U/mL
Experimental: Additionally, PBMCs and cancer cells alone were treated with desmuramylpeptides to assess any direct cytotoxic effects on these cells.
(§1) The PBMC cytotoxicity assays utilizing K562 cells were conducted following previously established methods, with some adjustments.[82] […] Meanwhile, K562 cells were stained with CFSE (Invitrogen, Carlsbad, CA, USA), washed twice with complete medium, and then added (1 × 10^4 cells per well) to the pretreated PBMCs to achieve a final effector cell to target tumor cell ratio of 40:1. Following a 4-h coincubation period at 37 °C with 5% CO2, cells were stained with Sytox blue dead cell stain (Invitrogen) and analyzed using an Attune NxT flow cytometer (Thermo Fisher Scientific, Waltham, MA, USA) along with FlowJo software (Tree Star, Inc., Ashland, OR, USA). Cells positive for both CFSE and Sytox blue were designated as dead K562 cells. PBMCs alone and CFSE-labeled cancer cells alone were also exposed to the compounds at equivalent concentrations and stained with Sytox blue to assess any direct cytotoxic effects of the compounds on PBMCs and cancer cells separately. Each experiment was conducted in duplicate and repeated in three independent biological replicates. Statistical analysis was performed using one-way ANOVA followed by Dunnett’s multiple comparisons test.

hNOD2 = molecular target: T1, hNOD2 (Homo sapiens, UniProt Q9HC29); experiment: HEK-Blue NOD2 cell line reporter assay (NF-κB-inducible SEAP); assay type: cell-based; conditions: for EC50: HEK-Blue NOD2 cells, 18 h
T1 construct: host or cells: HEK-Blue NOD2 cells (HEK293)
In short: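 HEK293 cells cotransfected with hNOD2 and an NF-κB-inducible SEAP reporter, exposed to compounds dose-dependently for 18 h at 37 °C, 5% CO2. SEAP read by absorbance at 630 nm; EC50 values from dose-response, duplicate wells, at least two independent biological replicates.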

K562 cancer cells = experiment: PBMC cytotoxicity against K562 cancer cells (flow cytometry); assay type: cell-based; conditions: for cytotoxicity of PBMCs against K562 cells, cotreatment with LPS (relative to negative control) / Cytotoxicity (ratio to control), + LPS: 10 μM + LPS 1 μg/mL; for cytotoxicity of PBMCs against K562 cells, cotreatment with LPS (relative to negative control) / enhancement of cytotoxicity of PBMCs against K562 cells (relative to negative control): 18 h, then 4 h coincubation; for cytotoxicity of PBMCs against K562 cells, cotreatment with LPS (relative to negative control): 40:1; for Cytotoxicity (ratio to control), + LPS / Cytotoxicity (ratio to control): Table S2; for Cytotoxicity (ratio to control) / enhancement of cytotoxicity of PBMCs against K562 cells (relative to negative control): alone: compounds 10 μM, LPS 1 μg/mL, IL-2 200 U/mL; for enhancement of cytotoxicity of PBMCs against K562 cells (relative to negative control): effector:target 40:1
Experimental: In this study, we investigated the potential of desmuramylpeptides, both alone and in combination with LPS, to enhance the cytotoxic activity of PBMCs against cancer cells employing a flow-cytometry-based cytotoxicity assay based on coincubation of preactivated PBMCs with fluorescently labeled K562 cancer cells.[82] Among the diverse subpopulations within PBMCs, natural killer (NK) cells play a pivotal role in detecting and eliminating cancer cells. NOD2-mediated NK cell activity against cancer cells arises from both direct NOD2 agonist elicited cytolytic activity of NK cells[83] and indirect activation through cytokine release by other NOD2-responsive cells, such as monocytes, which comprise approximately 10% of PBMCs; such interactions potentially reinforce the immune response.[84] […] To that end, we utilized the entire PBMC population as effector cells rather than isolated NK cells, to mimic conditions more closely resembling the in vivo environment while K562 chronic myelogenous leukemia cells were used as the target cells in a 40:1 effector to target cell ratio.[87]
as §1

[1] = system: CD4+ T cells cocultured with BMDCs; experiment: BMDC antigen presentation to ovalbumin-specific CD4+ T cells (OT II); assay type: cell-based, C57BL/6 mouse; conditions: BMDCs pretreated 10 μM + ovalbumin 50 μg/mL 18 h, coculture 72 h; OVA-treated cells 63.8%
Experimental: For this study, we narrowed down the selection of suitable desmuramylpeptides even further. In order to assess the adjuvant potential of selected desmuramylpeptides with regard to their effect on DC-mediated activation of CD4^+ and CD8^+ T cells, we conducted an ex vivo antigen-presentation assay utilizing C57BL/6 mouse bone marrow-derived DCs (BMDCs). Upon stimulation with desmuramylpeptides at 10 μM, in conjunction with ovalbumin soluble protein (50 μg/mL), BMDCs were cocultured with carboxyfluorescein succinimidyl ester (CFSE)-labeled naïve ovalbumin-specific CD4^+ or CD8^+ T cells, which were isolated from splenocytes of OT II and OT I transgenic mice, respectively. […] Additionally, we investigated how the priming of T cells elicited by the tested compounds impacted the cytokine profiles secreted in BMDC/T-cell cocultures.
CD4^+ and CD8^+ T cells were isolated from splenocytes of OT II and OT I transgenic mice using CD4^+ and CD8^+ T cell isolation kits (Miltenyi Biotec, Germany) following the manufacturer’s instructions. The purified T cells were labeled with CFSE (Invitrogen, Carlsbad, CA, USA) and subsequently washed. Next, 5 × 10^4 T cells were combined with 1 × 10^4 BMDCs/well (pretreated with desmuramylpeptides at 10 μM and 50 μg/mL ovalbumin [Invivogen, San Diego, CA, USA] for 18 h and then washed). Following a 72-h incubation period at 37 °C with 5% CO2, supernatants were harvested and stored at −80 °C for cytokine analysis. The cells were then stained with Fixable viability dye eFluor 780 (eBioscience, Thermo Fisher Scientific, MA, USA), anti-Thy1.2-PE-Cy7 antibodies (Biolegend, San Diego, CA, USA), anti-CD8-eFluor450 antibodies (eBioscience), anti-CD4-eFluor450 antibodies (eBioscience), and anti-CD25-APC antibodies (Biolegend) before analysis using a Beckman Coulter Cytoflex S flow cytometer (CA, USA) and FlowJo software (Tree Star, Inc., Ashland, OR, USA). Live Thy1.2+/CD4+ and Thy1.2+/CD8+ cells were assessed for CFSE dilution and CD25 expression. Each experiment was performed in duplicate and repeated in two independent biological replicates. Statistical significance was determined using paired t tests.

[2] = NF-κB transcriptional activity (SEAP), read-out: EC50 (nM), NOD2 agonistic activity

T1 sequence (Q9HC29 whole entry): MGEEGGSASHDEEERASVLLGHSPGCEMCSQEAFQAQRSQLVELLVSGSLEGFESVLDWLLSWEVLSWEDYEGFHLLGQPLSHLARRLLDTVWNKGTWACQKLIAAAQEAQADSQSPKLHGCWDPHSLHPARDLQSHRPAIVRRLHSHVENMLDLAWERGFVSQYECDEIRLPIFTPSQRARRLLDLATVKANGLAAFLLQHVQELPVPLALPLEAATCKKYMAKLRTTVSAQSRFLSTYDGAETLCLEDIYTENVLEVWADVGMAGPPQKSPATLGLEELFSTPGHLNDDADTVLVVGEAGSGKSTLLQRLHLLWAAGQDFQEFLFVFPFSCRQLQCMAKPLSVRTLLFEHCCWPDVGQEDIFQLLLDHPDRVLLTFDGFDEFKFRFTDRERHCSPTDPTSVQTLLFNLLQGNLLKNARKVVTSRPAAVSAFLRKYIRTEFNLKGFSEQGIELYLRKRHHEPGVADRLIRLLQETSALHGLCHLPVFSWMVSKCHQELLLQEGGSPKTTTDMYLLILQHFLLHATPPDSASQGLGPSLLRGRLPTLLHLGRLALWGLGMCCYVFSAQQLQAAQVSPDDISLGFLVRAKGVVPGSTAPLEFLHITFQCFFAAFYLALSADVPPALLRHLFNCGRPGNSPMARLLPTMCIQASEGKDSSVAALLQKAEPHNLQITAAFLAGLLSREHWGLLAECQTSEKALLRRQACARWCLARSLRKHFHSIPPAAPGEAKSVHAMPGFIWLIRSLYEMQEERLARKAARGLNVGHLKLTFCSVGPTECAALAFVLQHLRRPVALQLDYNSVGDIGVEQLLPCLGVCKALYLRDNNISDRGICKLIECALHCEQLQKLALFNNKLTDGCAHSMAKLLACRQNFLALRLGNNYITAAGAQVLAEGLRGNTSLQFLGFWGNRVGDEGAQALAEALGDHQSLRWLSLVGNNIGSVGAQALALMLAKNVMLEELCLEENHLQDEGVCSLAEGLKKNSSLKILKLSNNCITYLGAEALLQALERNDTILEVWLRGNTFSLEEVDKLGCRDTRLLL

Row | Compound | Percent of dead PBMCs, + LPS (PBMCs) | Percent of dead PBMCs (PBMCs) | enhancement in potency compared to 1 (hNOD2; EC50 ratio versus unsubstituted counterpart 1) [fold] | EC50 (hNOD2; [2]) [nM] | cytotoxicity of PBMCs against K562 cells, cotreatment with LPS (relative to negative control) (K562 cancer cells) [fold] | Cytotoxicity (ratio to control), + LPS (K562 cancer cells) | Cytotoxicity (ratio to control) (K562 cancer cells) | enhancement of cytotoxicity of PBMCs against K562 cells (relative to negative control) (K562 cancer cells) | fraction of activated and proliferating CD4+ T-cells (CD25+, CFSE low) [1] [%] | EC50 (hNOD2; read-out: EC50, NOD2 agonistic activity (text)) [nM]
1 | CCCC(=O)Oc1ccc(/C=C/C(=O)NCC(=O)N[C@H](C(=O)N[C@H](CCC(=O)OCC)C(=O)OCC)C(C)C)cc1OC [Compound 3, Diethyl ((E)-3-(4-(Butyryloxy)-3-methoxyphenyl)acryloyl)glycyl-L-valyl-D-glutamate] | 3.34% ± 0.35% | 1.14% ± 0.23% | ~17 | 4.6 ± 1.6 | 0.98 | 0.98 ± 0.18 | 1.04 ± 0.06 | no activity | 77.9 | 
2 | CC/C=C\C/C=C\C/C=C\C/C=C\C/C=C\CCCC(=O)Oc1ccc(/C=C/C(=O)NCC(=O)N[C@H](C(=O)N[C@H](CCC(=O)OCC)C(=O)OCC)C(C)C)cc1OC [Compound 23, Diethyl ((E)-3-(4-(((5Z,8Z,11Z,14Z,17Z)-Icosa-5,8,11,14,17-pentaenoyl)oxy)-3-methoxyphenyl)acryloyl)glycyl-L-valyl-D-glutamate] | 11.4% ± 2.64% | 1.28% ± 0.06% |  | 105 ± 22.8 | 1.30 | 1.30 ± 0.26 | 1.02 ± 0.08 | no activity | 79.7 | 
3 | CCOC(=O)CC[C@@H](NC(=O)[C@@H](NC(=O)CNC(=O)/C=C/c1ccc(OC(=O)CO[C@H]2CC[C@@]3(C)C(=CC[C@H]4[C@@H]5CC[C@H]([C@H](C)CCCC(C)C)[C@@]5(C)CC[C@@H]43)C2)c(OC)c1)C(C)C)C(=O)OCC [Compound 26, Diethyl ((E)-3-(4-(2-(((8S,9S,10R,13R,14S,17R)-10,13-Dimethyl-17-((R)-6-methylheptan-2-yl)-2,3,4,7,8,9,10,11,12,13,14,15,16,17-tetradecahydro-1H-cyclopenta[a]phenanthren-3-yl)oxy)acetoxy)-3-methoxyphenyl)acryloyl)glycyl-L-valyl-D-glutamate] | 9.93% ± 0.49% | 1.08% ± 0.10% |  | 12200 | 2.39 | 2.39 ± 0.27 | 1.34 ± 0.05 | 1.34 fold | 62.7 | 12200
